The values below are quoted from earlier work in patent publication US20100105139A1, “Ligand Targeted Nanocapsules for the delivery of RNAi and other Agents” (priority 2008, published 2010).

The test system of this data set is advanced stage melanoma. As to conditions: melanoma patients.

Regarding `COc1cccc2c1C(=O)c1c(O)c3c(c(O)c1C2=O)C[C@@](O)(C(=O)CO)C[C@@H]3O[C@H]1C[C@H](N)[C@H](O)[C@H](C)O1` [DOX, Doxorubicin], the response rates result is given as “essentially ineffective”.
